Test results published in ChEMBL document CHEMBL3880428, “Sulfonamide derivative having PGD2 receptor antagonistic activity” (2012).

Key:
Format in all cases: cell-based
HEK293 [1] = assay: Selectivity ratio of IC50 for PGD2 receptor in human platelets to IC50 for human EP3 receptor expressed in HEK293 cells by cAMP accumulation assay
HEK293 [2] = assay: Selectivity ratio of IC50 for PGD2 receptor in human platelets to IC50 for human EP4 receptor expressed in HEK293 cells by cAMP accumulation assay
HEK293 [3] = assay: Selectivity ratio of IC50 for PGD2 receptor in human platelets to IC50 for human EP1 receptor expressed in HEK293 cells by cAMP accumulation assay
HEK293 [4] = assay: Selectivity ratio of IC50 for PGD2 receptor in human platelets to IC50 for human FP receptor expressed in HEK293 cells by cAMP accumulation assay
HEK293 [5] = assay: Selectivity ratio of IC50 for PGD2 receptor in human platelets to IC50 for human IP receptor expressed in HEK293 cells by cAMP accumulation assay
HEK293 [6] = assay: Selectivity ratio of IC50 for PGD2 receptor in human platelets to IC50 for human TP receptor expressed in HEK293 cells by cAMP accumulation assay
HEK293 [7] = assay: Selectivity ratio of IC50 for PGD2 receptor in human platelets to IC50 for human EP2 receptor expressed in HEK293 cells by cAMP accumulation assay

Measured: Ratio IC50

CC(C)Oc1ccc(S(=O)(=O)N2CCN(c3cc(F)cc(OCC(=O)O)c3)CC2)cc1
> 20: all assays above

CC(C)Oc1ccc(S(=O)(=O)N2CCN(c3ccc(Cl)c(OCC(=O)O)c3)CC2)cc1F
> 20: all assays above

CC(C)Oc1ccc(S(=O)(=O)N2CCN(c3ccc(Cl)c(CC(=O)O)c3)CC2)cc1
> 20: all assays above

CC(C)Oc1ccc(S(=O)(=O)N2CCN(c3ccc(-c4nnco4)c(OCC(=O)O)c3)CC2)cc1
> 20: all assays above

CC(C)Oc1ccc(S(=O)(=O)N2CCN(c3ccc([N+](=O)[O-])c(OCC(=O)O)c3)CC2)cc1
> 20: all assays above

CC(C)Oc1ccc(S(=O)(=O)N2CCN(c3ccc(-c4nncs4)c(OCC(=O)O)c3)CC2)cc1
> 20: all assays above

CC(C)Oc1ccc(S(=O)(=O)N2CCN(c3cc(OCC(=O)O)cc(-c4cccs4)c3)CC2)cc1
> 20: all assays above

CC(=O)c1ccc(N2CCN(S(=O)(=O)c3ccc(OC(C)C)cc3)CC2)cc1OCC(=O)O
> 20: all assays above

CC(C)Oc1ccc(S(=O)(=O)N2CCN(c3ccc(Oc4ccccc4)c(OCC(=O)O)c3)CC2)cc1
> 20: all assays above

CC(C)Oc1ccc(S(=O)(=O)N2CCN(c3cc(OCC(=O)O)cc(-c4ccccc4)c3)CC2)cc1
> 20: all assays above

CNC(=O)c1ccc(N2CCN(S(=O)(=O)c3ccc(OC(C)C)cc3)CC2)cc1OCC(=O)O
> 20: all assays above

CC(C)Oc1ccc(S(=O)(=O)N2CCC(c3ccc(Cl)c(OCC(=O)O)c3)CC2)cc1
> 20: all assays above

CC(C)Oc1ccc(S(=O)(=O)N2CCN(c3ccc(NC(=O)c4ccco4)c(OCC(=O)O)c3)CC2)cc1
> 20: all assays above

CC(C)Oc1ccc(S(=O)(=O)N2CCC(Oc3ccccc3/C=C/C(=O)O)CC2)cc1
> 20: all assays above

CC(C)Oc1ccc(S(=O)(=O)N2CCN(c3ccc([N+](=O)[O-])c(NCC(=O)O)c3)CC2)cc1
> 20: all assays above

CC(C)Oc1ccc(S(=O)(=O)N2CCN(c3ccc(C(=O)NCc4cccs4)c(OCC(=O)O)c3)CC2)cc1
> 20: all assays above

CC(C)Oc1ccc(S(=O)(=O)N2CCN(c3ccc(C(=O)NC4CC4)c(OCC(=O)O)c3)CC2)cc1
> 20: all assays above

CC(C)Oc1ccc(S(=O)(=O)N2CCN(c3ccc(C(=O)Nc4ccccc4)c(OCC(=O)O)c3)CC2)cc1
> 20: all assays above

CC(C)Oc1ccc(S(=O)(=O)N2CCN(c3ccc(Br)c(OCC(=O)O)c3)CC2)cc1
> 20: all assays above

CC(C)Oc1ccc(S(=O)(=O)N2CCN(c3ccc(Cl)c(OCC(=O)O)c3)CC2)cn1
> 20: all assays above

CC(C)Sc1ccc(S(=O)(=O)N2CCN(c3ccc(Cl)c(OCC(=O)O)c3)CC2)cc1
> 20: all assays above

CC(C)Oc1ccc(S(=O)(=O)N2CCN(c3ccc(C(=O)NCc4ccco4)c(OCC(=O)O)c3)CC2)cc1
> 20: all assays above

CC(C)Oc1ccc(S(=O)(=O)N2CCN(c3ccc4ncn(CC(=O)O)c4c3)CC2)cc1
> 20: all assays above

CC(C)Oc1ccc(S(=O)(=O)N2CCN(c3ccc(C(=O)Nc4ccn(C)n4)c(OCC(=O)O)c3)CC2)cc1
> 20: all assays above

CC(C)Oc1ccc(S(=O)(=O)N2CCN(c3cc(F)c(F)c(OCC(=O)O)c3)CC2)cc1
> 20: all assays above

CC(C)Oc1ccc(S(=O)(=O)N2CCC(Oc3ccc(F)cc3CCC(=O)O)CC2)cc1
> 20: all assays above

CC(C)Oc1ccc(S(=O)(=O)N2CCN(c3ccc(-c4ncco4)c(OCC(=O)O)c3)CC2)cn1
> 20: all assays above

CC(C)Oc1ccc(S(=O)(=O)N2CCN(c3ccc(Cl)c(OCC(=O)O)c3)CC2)cc1
> 20: all assays above

Cc1cc(OCC(=O)O)cc(N2CCN(S(=O)(=O)c3ccc(OC(C)C)cc3)CC2)c1
> 20: all assays above

CC(C)Oc1ccc(S(=O)(=O)N2CCN(c3cc(Cl)cc(OCC(=O)O)c3)CC2)cc1
> 20: all assays above

CC(C)Oc1ccc(S(=O)(=O)N2CCN(c3ccc(C(=O)Nc4nccs4)c(OCC(=O)O)c3)CC2)cc1
> 20: all assays above

CC(C)Oc1ccc(S(=O)(=O)N2CCN(c3ccc(NC(=O)c4cccnc4)c(OCC(=O)O)c3)CC2)cc1
> 20: all assays above

Cc1cc(C(=O)Nc2ccc(N3CCN(S(=O)(=O)c4ccc(OC(C)C)cc4)CC3)cc2OCC(=O)O)no1
> 20: all assays above

CC(C)Oc1ccc(S(=O)(=O)N2CCN(c3ccc(-c4ccccc4)c(OCC(=O)O)c3)CC2)cc1
> 20: all assays above
